Values joined by “and” are separate entries in the source; they are usually repeats but may differ in a detail not shown here. Equal values may be shown once.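 Compound exposure: 48 hours, 5 concentrations, 96-well plates. GI50 marks 50% less growth. TGI: concentration producing complete growth inhibition.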
What was measured:
Assay in all cases: NCI tumour cell line growth inhibition, 48 h
NCI-H522 lung = test system: NCI-H522 lung
NCI-H460 lung = test system: NCI-H460 lung
NCI-H226 lung = test system: NCI-H226 lung
HCT-116 colon = test system: HCT-116 colon
RPMI-8226 leukemia = test system: RPMI-8226 leukemia
RXF 393 renal = test system: RXF 393 renal
SF-268 CNS = test system: SF-268 CNS
UACC-257 melanoma = test system: UACC-257 melanoma
HOP-92 NSCLC = test system: HOP-92 NSCLC
OVCAR-5 ovarian = test system: OVCAR-5 ovarian

Structure (SMILES)	TGI (NCI-H522 lung) [µM]	TGI (NCI-H460 lung) [µM]	TGI (NCI-H226 lung) [µM]	TGI (HCT-116 colon) [µM]	TGI (RPMI-8226 leukemia)	TGI (RXF 393 renal)	TGI (SF-268 CNS) [µM]	TGI (UACC-257 melanoma) [µM]	TGI (HOP-92 NSCLC) [µM]	TGI (OVCAR-5 ovarian) [µM]	GI50 (NCI-H522 lung) [µM]	GI50 (NCI-H460 lung) [µM]	GI50 (NCI-H226 lung) [µM]	GI50 (HCT-116 colon) [µM]	GI50 (RPMI-8226 leukemia)	GI50 (RXF 393 renal)	GI50 (SF-268 CNS) [µM]	GI50 (UACC-257 melanoma) [µM]	GI50 (HOP-92 NSCLC) [µM]	GI50 (OVCAR-5 ovarian) [µM]
O=C(c1ccccc1)c1c(-c2ccccc2)sc2nc3ccccc3nc12	> 100	> 100	> 100	> 100	> 100 µM	> 100 µM	> 100	> 100	> 100	> 100										
CC(=C/C=C/C=C(C)\C=C\C=C(\C)C(=O)O)/C=C/C=C(/C)C(=O)O	> 100	> 100	> 100	> 100	> 100 µM	> 100 µM	> 100	> 100	> 100	> 100										
COc1ccc(NC(=O)CC/C(CC(=O)C(C)(C)C)=N\NC(=O)C(=O)NN)cc1	> 100	> 100	> 100	> 100	> 100 µM	> 100 µM	> 100	> 100	> 100	> 100										
Cc1cc(O)cc2c1[C@]1(C)CCC3C(C)(C)CCC[C@]3(C)[C@H]1C2 (some centres undefined)	38.9	37.1	41.4	33	74.7 µM	50.4 µM	39.4	41.3	35.3	37.2	20.8	20.6	22.4	19	29.6 µM	25 µM	21	23.6	18.4	21.4
COc1cccc(/C=C/[N+](=O)[O-])c1	23.5	38.8	65.3	3.31	4.54 µM	3.39 µM	21.4	11.6	34.6	27.6	11.1	15.1	26.2	1.49	1.78 µM	1.83 µM	5.64	3.19	15.9	12.3
COc1ccc(-c2oc(=O)ccc2-c2cc(OC)c(OC)c(OC)c2)cc1O	3.45	> 100	> 96	> 86.6	6.19 µM	3.76 µM	> 72.1	> 100	> 80.4	> 100	0.425	0.604	9.81	0.736	1.4 µM	0.795 µM	2.04	9.87	8.61	12.7
O=c1cc(N2CCN(CCCCCOc3cc(O)c4c(=O)cc(-c5ccccc5)oc4c3)CC2)c2ccccc2o1	> 100	> 100	> 100	> 100	> 100 µM	> 100 µM	> 100	> 100	> 100	> 100	> 100	> 100	23.9	25.4	12.4 µM	> 100 µM	> 100	> 100	26.1	> 100
C#CC1(OC(C)=O)CCC2C3CC=C4C=C(OC(C)=O)CCC4(C)C3CCC21C (centres undefined)	34.9	61.8	63	44.3			48.4	35.3	32.9	> 100										
CC(C)(C)CC(C)(C)c1cc2c(O)c(c1)Cc1cc(C(C)(C)CC(C)(C)C)cc(c1O)Cc1cc(C(C)(C)CC(C)(C)C)cc(c1O)Cc1cc(C(C)(C)CC(C)(C)C)cc(c1O)Cc1cc(C(C)(C)CC(C)(C)C)cc(c1O)C2	> 100	> 100		> 100	> 100 µM	> 100 µM	> 100	> 100	> 100	> 100										
C/C(=N\Nc1cc(C)c2ccccc2n1)c1ccccn1	0.319	1.17	2.71	1.29	2.01 µM	1.82 µM	1.71	0.452		5.26	0.0534	< 0.0387	0.225	< 0.0401	0.112 µM	0.29 µM	0.0433	0.0874		0.0706
O=C1c2ccccc2-c2oc(=O)c3ccccc3c21	> 100	> 100	> 100	> 100	> 100 µM	> 100 µM		> 100	> 100	> 100										
CCOC(=O)NC1C2CC(=O)OC(O2)C1OC(C)=O (centres undefined)	> 100	> 100		> 100	> 100 µM	> 100 µM	> 100	> 100	> 100	> 100										
c1ccc2c(NCCCCCCNc3c4ccccc4nc4ccccc34)c3ccccc3nc2c1	1.66		3.54	0.693	0.25 µM	1.56 µM	2.71	8.28	1.97	2.71										
CN(C)CCNC(=O)c1cccc2nc3cc(Cl)ccc3nc12	> 100		5.14	2.23	31.6 µM	6.31 µM		8.69	> 23.8	7.62										
C=C(C#N)C1OCC2OC(C)(C)OC21 (centres undefined)		57.4		38.4		31.3 µM	52.5	30	43.3	33.9										
CC(=Nc1ccccc1)C1=C(O)C(Cc2ccc(O)cc2)NC1=O (centres undefined)		1.08	> 100	1.93	> 100 µM		> 80.2	> 100	> 100	> 100		0.0794	0.968	0.0503	0.169 µM		0.117	> 100	0.082	0.548
CC(=O)OC1CCn2nnc(CO)c21 (centres undefined)	> 100	> 100	> 100	> 100	> 100 µM	> 100 µM		> 100	> 100	> 100										
COc1cc(Nc2nc3ccccc3nc2NS(=O)(=O)c2ccc(NC(=O)c3ccc(C)c(OC)c3)cc2)cc(OC)c1		> 100		> 100	84.5 µM and 53.8 µM and > 10 µM	14.8 µM and 33.4 µM and > 6.13 µM	> 100			> 100					3.98 µM and 12.3 µM and 1.96 µM	2.8 µM and 7.57 µM and 1.06 µM				
CN1CC(=O)N(C)c2ncn(Cc3ccccc3)c2C1=O		> 100			> 100 µM	> 100 µM	> 100													

Structure (SMILES)	TGI (NCI-H522 lung) [µM]	TGI (NCI-H460 lung) [µM]	TGI (NCI-H226 lung) [µM]	TGI (HCT-116 colon) [µM]	TGI (RPMI-8226 leukemia)	TGI (RXF 393 renal)	TGI (SF-268 CNS) [µM]	TGI (UACC-257 melanoma) [µM]	TGI (HOP-92 NSCLC) [µM]	TGI (OVCAR-5 ovarian) [µM]	GI50 (NCI-H522 lung) [µM]	GI50 (NCI-H460 lung) [µM]	GI50 (NCI-H226 lung) [µM]	GI50 (HCT-116 colon) [µM]	GI50 (RPMI-8226 leukemia)	GI50 (RXF 393 renal)	GI50 (SF-268 CNS) [µM]	GI50 (UACC-257 melanoma) [µM]	GI50 (HOP-92 NSCLC) [µM]	GI50 (OVCAR-5 ovarian) [µM]
Cc1cc(-c2nc3sccn3c2/C=N/N=C(N)N)c(C)s1	32	30.4	31.7	25.3	33.2 µM		31.7	36.2		26.9	15.7	16.8	15.4	12.7	13.3 µM		16.6	18.9		14
NC[C@H]1Nc2ccccc2[C@@H](O)C1O (some centres undefined)		> 100	> 100	> 100	> 100 µM	> 100 µM	> 100	> 100	> 100	> 100										
COC(=O)CC[C@]1(C)O[C@H]2[C@H]([C@@H](C)CCCC(C)=O)OC(=O)[C@@H]2C[C@H]1O	> 100	> 100		> 100	> 100 µM	> 100 µM	> 100	> 100	> 100	> 100	> 100	> 100		> 100	> 100 µM	60.1 µM	> 100	44.9	> 100	> 100
Cc1ccc(NC2=C(Cl)C(=O)N(Cc3ccc(Cl)cc3)C2=O)cc1O	34.3	20.5	13.3	29	14.8 µM	36.4 µM	21.2	28.7			11.6	4.29	2.55	6.57	2.04 µM	10.4 µM	5.07	13		
O=C(O)NC(c1ccccc1)C(NC(=O)c1ccccc1)c1ccccc1 (centres undefined)		> 100		> 100	> 100 µM	> 100 µM	> 100	> 100	> 100	> 100										
O=C(O)Cc1cc(=O)[nH]c2c1/C(=N/O)CCC2	> 100	> 100	> 100		> 100 µM	> 100 µM	> 100	> 100	> 100	> 100										
O=C1NC(=O)C(c2ccccc2Cl)=C1Nc1cc(Cl)c(O)c(Cl)c1	> 25	> 25		> 25	> 25 µM	> 23.5 µM	> 25			> 25	8.78	> 25		13.6	> 19.4 µM	5.98 µM	12.1			> 25
CC(=O)[CH-]C(=O)c1ccccc1.CC(=O)[CH-]C(=O)c1ccccc1.CC(C)CCCC(C)[C@H]1CCC2[C@@H]3CC=C4C[C@@H]([O-])CC[C@]4(C)C3CC[C@@]21C.CC(C)CCCC(C)[C@H]1CCC2[C@@H]3CC=C4C[C@@H]([O-])CC[C@]4(C)C3CC[C@@]21C.[Ti+4] (some centres undefined)	> 100	> 100	> 100	> 100	> 100 µM	> 100 µM	> 100	> 100	> 100		> 100	> 100	> 100	> 100	> 100 µM	> 100 µM	> 100	> 100	> 100	
O=C(Nc1ccc(Cl)cc1Cl)C1C(=O)C(=O)N(c2ccc(Cl)cc2Cl)C1=O (centres undefined)	> 100	> 100	84.1	> 100		> 100 µM	> 100	> 100		> 100										
Cn1nc(-c2ccccc2)c(C(=O)/C=C/c2ccc(Cl)cc2)c(N2CCCCC2)c1=O	4.26	7.4		3.47	5.52 µM	2.8 µM			5.14											
CCOc1ccc(N=Cc2ccc3cc(C)ccc3n2)cc1	> 100	> 100	> 100		57.3 µM	> 100 µM	> 100	> 100	> 100	> 100										
CC(=O)c1cccc(C)c1C(=O)O	> 100	> 100	> 100	> 100	> 100 µM	> 100 µM	> 100	> 100		> 100										
N#CC1=C(N)Oc2c(ccc3ccccc23)C1c1ccccc1 (centres undefined)	1.7	10.8	19.4	3.73	15 µM		15.7	29.9	12.9	17.2	0.0226	0.038	0.463	0.0443	0.0417 µM		0.166	11.9	0.0413	0.172
COc1cc(OC)c(SSCCCCS(=O)O)c(OC)c1	21.1	38.1		29.9		27.6 µM	44	23.5		30.5										
CC1=C(C(=O)Nc2cc(=O)n(C)c(=O)n2C)C(c2cccc([N+](=O)[O-])c2)C(C(=O)Nc2cc(=O)n(C)c(=O)n2C)=C(C)N1	> 100	> 100	> 100		> 100 µM	> 100 µM	> 100	> 100	> 100	> 100										
COc1ccc2c3c([nH]c2c1[N+](=O)[O-])C(C)N(Cc1ccc([N+](=O)[O-])cc1)CC3 (centres undefined)	20.8	34.7	42.4		26.2 µM	57.1 µM	9.22	61.5		> 100										
COC(=O)C1=C(O)c2cc(-c3ccccc3)c(-c3ccccc3)c(C#N)c2NC(=O)C1		> 100		> 100		9.33 µM		> 100												
O=C(O)c1ccc(Oc2nccc(-c3c(-c4ccc(F)cc4)ncn3C3CCNCC3)n2)cc1	> 25	> 25		> 25	> 25 µM	> 25 µM	> 25			> 25	> 25	> 25		> 25	> 25 µM	> 25 µM	> 25			> 25

Reference: PubChem BioAssay (NCI)
